From patent US6022880A, “Substituted pyridylamino indoles” (Hoechst Marion Roussel, Inc., priority 1997, dated 2000)
Counter-ions that a name gives are not always drawn.

How the values were obtained:
[1] = test system: mice (scopolamine induced memory deficit); assay: Dark Avoidance Assay (reversal of scopolamine induced memory deficit); assay type: in vivo, mouse; settings: s.c.
Procedure: Dark Avoidance Assay In this assay mice are tested for their ability to remember an unpleasant stimulus for a period of 24 hours. A mouse is placed in a chamber that contains a dark compartment; a strong incandescent light drives it to the dark compartment, where an electric shock is administered through metal plates on the floor. The animal is removed from the testing apparatus and tested again, 24 hours later, for the ability to remember the electric shock. If scopolamine, an anticholinergic agent that is known to cause memory impairment, is administered before an animal's initial exposure to the test chamber, the animal re-enters the dark compartment shortly after being placed in the test chamber 24 hours later. This effect of scopolamine is blocked by an active test compound, resulting in a greater interval before re-entry into the dark compartment. The results for an active compound are expressed as the percent of a group of animals in which the effect of scopolamine is blocked, as manifested by an increased interval between being placed in the test chamber and re-entering the dark compartment.

[2] = test system: serotonin uptake, rat whole brain synaptosomes; assay: Inhibition of [3H]-Serotonin Uptake in Rat Whole Brain Synaptosomes; assay type: biochemical, rat (male Wistar); settings: [3H]-5HT 50 nM, read-out: C: Inhibition of serotonin uptake, IC50
Procedure: (C) Inhibition of [^3 H]-Serotonin Uptake in Rat Whole Brain Synaptosomes
(§1) A. Animals: Male CR Wistar Rats (100-125 g).
The final desired concentration of ^3 H-5HT in the assay is 50 nM. The dilution factor is 0.8.
5. For most assays, a 1 mM solution of the test compound is made up in suitable solvent and serially diluted such that the final concentration in the assay ranges from 2×10^-8 to 2×10^-5 M. Seven concentrations are used for each assay.
(§2) Male Wistar rats are decapitated and the brain rapidly removed. Whole brain minus cerebella is weighed and homogenized in 9 volumes of ice-cold 0.32 M sucrose using a Potter-Elvejhem homogenizer. Homogenization should be done with 4-5 up and down strokes at medium speeds to minimize synaptosome lysis. The homogenate is centrifuged at 1000 g for 10 min. at 0-4° C. The supernatant (S1) is decanted and is used for uptake experiments.
(§3) Tubes are incubated at 37° C. under a 95% O2 /5% CO2 atmosphere for 5 minutes. For each assay, 3 tubes are incubated with 20 μl of vehicle at 0° C. in an ice bath. After incubation all tubes are immediately centrifuged at 4000 g for 10 minutes. The supernatant fluid is aspirated and the pellets dissolved by adding 1 ml of solubilizer (Tritor. X-100+50% EtOH, 1:4 v/v). The tubes are vigorously vortexed, decanted into scintillation vials, and counted in 10 ml of Liquiscint scintillation counting cocktail. Active uptake is the difference between cpm at 37° C. and 0° C. The percent inhibition at each drug concentration is the mean of three determinations. IC50 values are derived from log-probit analysis.

[3] = test system: norepinephrine uptake, rat whole brain or hypothalamic synaptosomes; assay: Inhibition of [3H]-Norepinephrine Uptake in Rat Whole Brain or Hypothalamic Synaptosomes; assay type: biochemical, rat (male Wistar); settings: [3H]-NE 50 nM, read-out: E: Inhibition of norepinephrine uptake, IC50
Procedure: (E) Inhibition of [^3 H]-Norepinephrine Uptake in Rat Whole Brain or Hypothalamic Synaptosomes
This assay is used as a biochemical screen for potential antidepressants which block norepinephrine uptake.
A. Animals: Male CR Wistar rats (100-125 g).
The final desired concentration of [^3 H]-NE in the assay is 50 nM. The dilution factor is 0.8.
(§4) 5. For most assays, a 1 mM stock solution of the test compound is made up in a suitable solvent and serially diluted such that the final concentration in the assay ranges from 2×10^-8 to 2×10^-5 M. Seven concentrations are used for each assay.
as §2, with “Either whole” for “Whole”, “cerebella or hypothalamus” for “cerebella”
as §3, with “(Triton” for “(Tritor.”

[4] = test system: dopamine uptake, rat striatal synaptosomes; assay: Inhibition of 3H-Dopamine Uptake in Rat Striatal Synaptosomes; assay type: biochemical, rat (male Wistar); settings: 3H-DA 50 nM, read-out: D: Inhibition of dopamine uptake, IC50
Procedure: (D) Inhibition of ^3 H-Dopamine Uptake in Rat Striatal Synaptosomes
This assay is used to show differential drug effects on dopamine uptake versus norepinephrine uptake and to identify therapeutic agents for diseases where the potentiation of dopaminergic activity may be helpful (e.g. Parkinson's Disease).
as §1
The final desired concentration of ^3 H-DA in the assay is 50 nM. The dilution factor is 0.9. Therefore, the KHBB is made up to contain 55.5 nM [^3 H]-5DA.
as §4, with “assay. Higher or lower concentrations may be used depending on the potency of the compound.” for “assay.”
as §2, with “Corpora striata are rapidly removed,” for “Whole brain minus cerebella is”
as §3, with “(Triton” for “(Tritor.”

MAO-B = biological target: T1, MAO-B (Rattus norvegicus, UniProt P19643); assay: biochemical; design: species or system rat (male Wistar, whole brain minus cerebellum); settings: substrate [14C]-PEA 200 μM; read-out: Inhibitory Concentration - IC50 MAO-B
T1 sequence (P19643 1-520): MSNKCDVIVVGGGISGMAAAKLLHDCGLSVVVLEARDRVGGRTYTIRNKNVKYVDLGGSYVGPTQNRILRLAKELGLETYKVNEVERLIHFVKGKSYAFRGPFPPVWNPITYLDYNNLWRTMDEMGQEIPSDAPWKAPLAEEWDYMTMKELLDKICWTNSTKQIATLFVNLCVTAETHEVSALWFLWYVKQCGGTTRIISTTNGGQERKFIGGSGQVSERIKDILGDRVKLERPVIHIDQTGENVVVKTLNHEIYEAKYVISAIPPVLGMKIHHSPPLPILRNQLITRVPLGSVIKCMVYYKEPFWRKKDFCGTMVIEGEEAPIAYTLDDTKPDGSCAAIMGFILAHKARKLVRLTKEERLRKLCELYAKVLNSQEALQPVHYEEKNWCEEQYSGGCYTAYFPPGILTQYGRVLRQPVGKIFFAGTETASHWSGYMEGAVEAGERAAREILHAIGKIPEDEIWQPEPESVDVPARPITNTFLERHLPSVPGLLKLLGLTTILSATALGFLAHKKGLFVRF
Procedure: (§5) Inhibition of Type A and Type B Monoamine Oxidase Activity in Rat Brain Synaptosomes
a. β-phenethylamine (PEA) is obtained from Sigma Chemical Company. A 5 mM stock solution is made up in 0.01 N HCl. This is used to dilute the specific activity of the [^14 C]-PEA.
b. β-[ethyl-1-^14 C]-phenethylamine hydrochloride (40-50 mCi/mmol) is obtained from New England Nuclear.
Add 12 μl of [^14 C]-PEA to 2 ml of the 5 mM PEA solution. (Final amine concentration in the assay is 200 μM: see below.)
(§6) Equal amounts of MAO-A (5HT) and MAO-B (PEA) substrates are combined for simultaneously testing both MAO types, i.e. mixed stock solution of 2.5 mM 5HT and 2.5 mM PEA, 40 μl of this mixed solution gives a 200 μM final concentration of each amine in the assay. When testing only one MAO type, the individual 5 mM stock solutions must be diluted 1:1 with distilled water prior to adding 40 μl to the incubation mixture; i.e., same 200 μM final amine concentration.
(§7) Male Wistar rats weighing 150-250 grams were sacrificed and the brains rapidly removed. Whole brain minus cerebellum was homogenized in 30 volumes of ice-cold, phosphate-buffered 0.25 M sucrose, using a Potter-Elvejhem homogenizer. The homogenate was centrifuged at 1000 g for 10 minutes and the supernatant (S1) decanted and recentrifuged at 18,000 g for 20 minutes. The resulting pellet (p2) was resuspended in fresh 0.25 M sucrose and served as the tissue source for mitochondrial MAO.
(§8) Tubes are preincubated for 15 minutes at 37° C. and the assay is started by adding 40 μl of combined substrate ([^3 H]-5HT and [^14 C]-PEA) at 15 second intervals. The tubes are incubated for 30 minutes at 37° C. and the reaction stopped by the addition of 0.3 ml 2N HCl. Tissue blank values are determined by adding the acid before the radioactive substrate. The oxidative products of the reaction are extracted with ethyl acetate/toluene (1:1). 5 ml of this mixture is added to the tubes. The resultant mixture is vortexed for 15 seconds to extract the deaminated metabolites into the organic phase and the latter is allowed to separate from the aqueous phase. The tubes are placed in acetone/dry ice bath to freeze the aqueous layer. When this layer is frozen, the top organic layer is poured into a scintillation vial. 10 ml of Liquiscint is added and the samples are counted using window settings for ^14 C in one channel and ^3 H in the second channel. IC50 values are determined by log-probit analysis.

MAO-A = biological target: T2, MAO-A (Rattus norvegicus, UniProt P21396); assay: biochemical; design: species or system rat (male Wistar, whole brain minus cerebellum); settings: substrate [3H]-5HT 200 μM; read-out: Inhibitory Concentration - IC50 MAO-A
T2 sequence (P21396 1-526): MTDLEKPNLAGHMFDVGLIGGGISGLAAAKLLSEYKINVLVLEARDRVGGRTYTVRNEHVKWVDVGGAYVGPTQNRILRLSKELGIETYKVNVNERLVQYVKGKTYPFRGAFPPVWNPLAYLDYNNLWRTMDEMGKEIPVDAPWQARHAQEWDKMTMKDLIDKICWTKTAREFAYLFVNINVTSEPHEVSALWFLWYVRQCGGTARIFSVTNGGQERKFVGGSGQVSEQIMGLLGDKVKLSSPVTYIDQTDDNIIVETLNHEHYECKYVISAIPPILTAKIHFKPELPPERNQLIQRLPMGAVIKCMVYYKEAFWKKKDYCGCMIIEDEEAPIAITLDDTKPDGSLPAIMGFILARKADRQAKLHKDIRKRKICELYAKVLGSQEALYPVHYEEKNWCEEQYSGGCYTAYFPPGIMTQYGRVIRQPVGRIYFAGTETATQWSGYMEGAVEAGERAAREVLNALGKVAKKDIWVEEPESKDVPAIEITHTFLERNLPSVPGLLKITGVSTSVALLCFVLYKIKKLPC
Description: as §5
To determine the selective inhibition of the two forms of monoamine oxidase (MAO).
Although various methods for measuring MAO activity are available, the described method involves the extraction of the radiolabeled deaminated metabolites of [^3 H]-5HT or [^14 C]-β-phenethylamine. This procedure allows MAO-A and MAO-B activities to be measured either simultaneously or individually (3).
Serotonin creatinine SO4 (5HT) is obtained from Sigma Chemical Company. A 5 mM stock solution is made up in 0.01 N HCl. This is used to dilute the specific activity of the [^3 H]-5HT.
[^3 H]-5-Hydroxytryptamine creatinine SO4 (20-30 Ci/mmol) is obtained from New England Nuclear.
Add 12 μl of [^3 H]-5HT to 2 ml of the 5 mM 5HT solution. (Final amine concentration in the assay is 200 μM: see below.)
as §6, §7, §8

Compound	IC50 [3] [nM]	IC50 [4] [nM]	IC50 (MAO-B) [µM]	IC50 (MAO-A) [µM]	other results
CC[C@@H]1C(=O)OC[C@@H]1Cc1cncn1C [Pilocarpine, reference compound]					% of Animals with Scopolamine Induced Memory Deficit Reversal ([1]; 5.0 mg/kg of body weight): 13%
O=C(O)/C=C\C(=O)O.c1ccc2c(Nc3ccncc3)c[nH]c2c1 [3-(4-pyridinylamino)-1H-indole maleate, 3-(4-Pyridinylamino)-1H-indole maleate]					% of Animals with Scopolamine Induced Memory Deficit Reversal ([1]; 10 mg/kg of body weight): 70%
Clc1ccc2c(N(CC3CC3)c3ccncc3)csc2c1 [6-Chloro-3-[(cyclopropylmethyl)(4-pyridyl)amino]benzo[b]thiophen hydrochloride]	12				IC50 [2]: 0.12 µM
CN(C)CCC=C1c2ccccc2CCc2ccccc21 [Amitriptyline, reference compound]	7700	> 20000			
FC(F)(F)c1ccc2c(Nc3ccncc3)csc2c1 [3-(4-Pyridinylamino)-6-trifluoromethylbenzo[b]thiophene hydrochloride]			165	60	
Clc1ccc2c(Nc3ccncc3)noc2c1 [6-Chloro-3-[(4-pyridinyl)amino]-1,2-benzisoxazole maleate]			51	2.8	
c1ccc2c(Nc3ccncc3)noc2c1 [3-[(4-pyridinyl)amino]-1,2-benzisoxazole]			3.9	0.64	
Cn1cc(Nc2ccncc2)c2ccccc21.O=C(O)/C=C/C(=O)O [1-Methyl-3-(4-pyridinylamino)indole fumarate]					% of Animals with Scopolamine Induced Memory Deficit Reversal ([1]; 1 mg/kg of body weight): 33%; % of Animals with Scopolamine Induced Memory Deficit Reversal ([1]; 3 mg/kg of body weight): 29%; % of Animals with Scopolamine Induced Memory Deficit Reversal ([1]; 10 mg/kg of body weight): 27%
Clc1ccc2c(Nc3ccncc3)c[nH]c2c1 [6-Chloro-3-(4-pyridinylamino)-1H-indole, 6-Chloro-3(4-pyridinylamino)indole]					% of Animals with Scopolamine Induced Memory Deficit Reversal ([1]; 1 mg/kg of body weight): 27%; % of Animals with Scopolamine Induced Memory Deficit Reversal ([1]; 3 mg/kg of body weight): 20%; % of Animals with Scopolamine Induced Memory Deficit Reversal ([1]; 10 mg/kg of body weight): 27%
C=CCN(c1ccncc1)c1csc2cc(Cl)ccc12 [6-Chloro-3-[(2-propenyl)(4-pyridinyl)amino]benzo[b]thiophen hydrochloride]	7				IC50 [2]: 0.12 µM
Nc1c2c(nc3ccccc13)CCCC2 [Tacrine, reference compound]					% of Animals with Scopolamine Induced Memory Deficit Reversal ([1]; 0.63 mg/kg of body weight): 13%
CN(c1ccncc1)c1cc2ccccc2s1 [2-(Methyl-4-pyridinylamino)benzo[b]thiophene hydrochloride]	78	510			IC50 [2]: 1.15 µM
COc1ccc2c(Nc3ccncc3)csc2c1 [6-Methoxy-3(4-pyridinylamino)benzo[b]thiophene hydrochloride]			17	3.2	
c1ccc2c(Nc3ccncc3)csc2c1 [3-(4-Pyridinylamino)benzo[b]thiophene hydrochloride]			18	5.3	
CN1CCN(C2=Nc3cc(Cl)ccc3Nc3ccccc32)CC1 [Clozapine, reference compound]	> 20000	> 20000			
Clc1ccc2c(Nc3ccncc3)csc2c1 [6-Chloro-3-(4-pyridinylamino)benzo[b]thiophene hydrochloride]			51	10.5	
CCCN(c1ccncc1)c1csc2cc(OC)ccc12 [6-Methoxy-3-(propyl-4-pyridinylamino)benzo[b]thiophene hydrochloride]			205	182	
CN(C)CCCN1c2ccccc2CCc2ccc(Cl)cc21 [Chloripramine, reference compound]	18600	> 20000			
CCCN(c1ccncc1)c1cc2ccccc2s1 [2-(Propyl-4-pyridinylamino)benzo[b]thiophene hydrochloride]	55	91			IC50 [2]: 0.24 µM
O=C1CC2(CCCC2)CC(=O)N1CCCCN1CCN(c2ncccn2)CC1 [Buspirone]		> 20000			
